Test systems include 786-0; A498; CAKI-1; HOP-92; LOX IMVI; M14; MCF7; MDA-N; NCI-H23; OVCAR-3; PC-3; SK-OV-3; SR; SW-620; TK-10; U-251; UO-31.
Common to all, as to assay: NCI tumour cell line growth inhibition, 48 h

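Values below derive from 48-hour exposures of cells grown in 96-well plates, with endpoints linearly interpolated between the two concentrations bracketing the appropriate inhibition level. At the GI50, growth is halved.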 Calls of active or inactive are those of the source. No stated cut-off is given here; in the data, active = GI50 up to about 1.1 µM and inactive = higher.

`CC(C)(C)N(Cc1ccc2c(c1)OCO2)C(=O)/C=C\[S+]([O-])c1ccccc1` (stereo unspecified): the GI50 in the test with 786-0 was 2.25 µM (inactive); in the test with A498, 9.48 µM (inactive); in the test on CAKI-1 it was 4.53 µM (inactive); in the test with HOP-92, 2.29 µM (inactive); with LOX IMVI it was 1.44 µM (inactive); in the test with M14, 2.28 µM (inactive). Besides, the GI50 with MCF7 is 2.77 µM (inactive); with MDA-N, 2.4 µM (inactive); in the test on NCI-H23, 2.27 µM (inactive); in the test with OVCAR-3 it was 1.99 µM (inactive); in the test with PC-3, 2.5 µM (inactive); with SK-OV-3, 3.01 µM (inactive). In addition, the GI50 with SR was 1.44 µM (inactive); in the test with SW-620, 2.07 µM (inactive); in the test on TK-10, 4.55 µM (inactive); in the test on U-251, 4.33 µM (inactive); in the test on UO-31, 2.19 µM (inactive).

For `[O-]c1c[n+](CC[n+]2cc([O-])on2)no1`, the GI50 in the test with 786-0, in the test with A498, in the test with CAKI-1, in the test on HOP-92, in the test with LOX IMVI and in the test on M14 was > 100 µM (inactive) in each case. The GI50 in the test with MCF7, with MDA-N, with NCI-H23, with OVCAR-3, in the test on PC-3 and with SK-OV-3 was > 100 µM (inactive) in each case. The GI50 in the test on SR, in the test with SW-620, in the test with TK-10, in the test on U-251 and in the test with UO-31 was > 100 µM (inactive) throughout.

Consider `c1ccc2c(CN3CCN(Cc4c[nH]c5ccccc45)CC3)c[nH]c2c1`, for which the GI50 in the test on 786-0 was 16.1 µM (inactive); in the test with A498 it was 14.4 µM (inactive); in the test on CAKI-1, 23.5 µM (inactive); with HOP-92 it was 14.8 µM (inactive); with LOX IMVI, 16.3 µM (inactive); in the test on M14, 15.7 µM (inactive). Further, the GI50 in the test on MCF7 was 17.9 µM (inactive); in the test on MDA-N, 14.9 µM (inactive); in the test on NCI-H23, 19.8 µM (inactive); in the test with OVCAR-3, 13.1 µM (inactive); in the test on PC-3, 18.6 µM (inactive); in the test on SK-OV-3, 21.4 µM (inactive). Moreover, the GI50 in the test with SR was 19.7 µM (inactive); with SW-620, 28 µM (inactive); with TK-10 it was 15.6 µM (inactive); with U-251, 15.9 µM (inactive); in the test on UO-31 it was 14.6 µM (inactive).

Take `CO[C@H]1O[C@@H]2CO[C@@H](c3ccccc3)O[C@H]2[C@@H]2C/C=C\CCC[C@@]12O`: the GI50 with 786-0 was 16.7 µM (inactive); in the test on A498 it was 14.8 µM (inactive); with CAKI-1, 33.4 µM (inactive); in the test with HOP-92 it was 20 µM (inactive); with LOX IMVI, 17.8 µM (inactive); in the test on M14, 22.4 µM (inactive). Also, the GI50 in the test on MCF7 is 19.2 µM (inactive); in the test with MDA-N, 25.1 µM (inactive); with NCI-H23, 24 µM (inactive); with OVCAR-3, 16.3 µM (inactive); with PC-3, 25.3 µM (inactive); in the test on SK-OV-3, 29 µM (inactive). The GI50 with SR is 20.3 µM (inactive); with SW-620, 26.9 µM (inactive); with TK-10, 34.8 µM (inactive); in the test with U-251, 20.8 µM (inactive); in the test on UO-31, 30.8 µM (inactive).

Consider `COc1cc([C@@H]2c3cc4c(cc3[C@H](OC3OC5COC(C(C)C)OC5C(O)C3O)C3COC(=O)[C@@H]32)OCO4)cc(OC)c1OC` (stereo partly specified), for which the GI50 in the test on 786-0 is 2.58 µM (inactive); in the test with A498, 2.89 µM (inactive); with CAKI-1 it was 4.15 µM (inactive); in the test on HOP-92, 6.85 µM (inactive); with LOX IMVI, 3.01 µM (inactive); in the test on M14, 5.24 µM (inactive). Also, the GI50 was 3.38 µM (inactive) in the test on MCF7; 2.18 µM (inactive) in the test on MDA-N; 4.55 µM (inactive) with NCI-H23; 2.62 µM (inactive) with OVCAR-3; 4.89 µM (inactive) in the test on PC-3; 6.32 µM (inactive) in the test with SK-OV-3. Further, the GI50 is 2.11 µM (inactive) in the test on SR; 4.48 µM (inactive) in the test on SW-620; 32 µM (inactive) in the test on TK-10; 3.93 µM (inactive) in the test on U-251; 11.1 µM (inactive) with UO-31.

For `C=C(Cl)C(Cl)(CBr)CCC(Cl)C(C)C` (stereo unspecified), the GI50 in the test with 786-0 is 0.337 µM (active); with A498 it was 5.21 µM (inactive); in the test with CAKI-1, 1.77 µM (inactive); in the test with HOP-92, 1.6 µM (inactive); in the test with LOX IMVI it was 11.6 µM (inactive); with M14, 22.2 µM (inactive). Besides, the GI50 was 1.12 µM (active) with MCF7; 3.72 µM (inactive) in the test on MDA-N; 13.7 µM (inactive) with NCI-H23; 1.32 µM (inactive) with OVCAR-3; 1.68 µM (inactive) in the test on PC-3; 26.4 µM (inactive) with SK-OV-3. The GI50 in the test with SR was > 36.6 µM (inactive); in the test on SW-620, 2.47 µM (inactive); in the test with TK-10, 1.33 µM (inactive); in the test on U-251, 0.647 µM (active); with UO-31, 2.94 µM (inactive).

On to `O=C1OC(c2ccccc2)=N/C1=C\c1cn[nH]n1`, for which the GI50 in the test with 786-0, in the test with A498, in the test with CAKI-1, with HOP-92, in the test on LOX IMVI and in the test on M14 was > 100 µM (inactive) in each case. Besides, the GI50 in the test with MCF7, in the test on MDA-N, in the test on NCI-H23, with OVCAR-3, with PC-3 and with SK-OV-3 was > 100 µM (inactive) in each case. Besides, the GI50 is 59.6 µM (inactive) with SR; > 100 µM (inactive) in the test on SW-620; > 100 µM (inactive) with TK-10; > 100 µM (inactive) in the test on U-251; > 100 µM (inactive) in the test with UO-31.

`Nc1cc2c(c3ccccc13)C(CCl)CN2C(=O)c1cc2cc(NC(=O)c3cc4ccccc4o3)ccc2[nH]1` (stereo unspecified): the GI50 is 0.00121 µM (active) in the test on 786-0; 0.00184 µM (active) in the test on A498; 0.000301 µM (active) in the test with CAKI-1; 0.0357 µM (active) in the test with HOP-92; 0.00262 µM (active) in the test with LOX IMVI; 0.00455 µM (active) with M14. Moreover, the GI50 in the test on MCF7 is 0.00075 µM (active); in the test on MDA-N, 0.00817 µM (active); with NCI-H23 it was 0.000551 µM (active); in the test on OVCAR-3 it was 0.00885 µM (active); in the test with PC-3, 0.00513 µM (active); with SK-OV-3, 0.11 µM (active). For the same molecule, the GI50 was 0.47 µM (active) with SR; 0.00456 µM (active) with SW-620; 0.00429 µM (active) with TK-10; 0.00281 µM (active) with U-251; 0.00128 µM (active) with UO-31.
